Data taken from patent US9567301B2, “Pyrrol-1-yl benzoic acid derivatives useful as myc inhibitors” (Whitehead Institute for Biomedical Research, priority 2012, dated 2017).
Read-outs that look alike come from different tables or passages of the source.

How the values were obtained:
Jurkat cells = assay: Cell viability assay (ATPlite), Jurkat; assay type: cell-based, human; settings: class symbols, NA: not active under assay conditions
Procedure: (§1) This assay was used for the H2171 and MM1S cell data shown in Table 2, and for the Jurkat (an immortalized line of human T lymphocyte cells), Ly1 (OCI-Ly1 human non-Hodgkin lymphoma cell line), Ly4 (OCI-Ly4 human non-Hodgkin lymphoma cell line), H2172 (NCI-H2172 human non-small cell lung cancer cell line), and CA-46 (a human Burkitt's lymphoma cell line) cell data shown in Table 3 and FIG. 12. Cells were counted and adjusted to 60,000 cells/mL. Using a Biotek EL406, 50 μL of cells are media were distributed into 384 well white plates from Thermo. Immediately after plating, compound in DMSO was distributed to plates. For large plate sets, cells were returned to 37° C. incubator while not in use.
(§2) Compounds were added to plates using a 100 nL 384 well pin transfer manifold on a Janus workstation. Stocks were arrayed in 10 point quadruplicate dose response in DMSO stock in 384 well Greiner compound plates. After addition of compound, plates were incubated for three days in a 37° C. incubator.
(§3) Cell viability was read out using ATPlite from Perkin Elmer. Plates were removed from the incubator and brought to room temperature prior to use. Lyophilized powder was resuspended in lysis buffer and diluted 1:2 with DI water. 25 μL of this solution was added to each well using the Biotek liquid handler. Plates were sealed with adherent aluminum seals prior to vortexing and spinning down at 1000 g for 1 minute. Plates were incubated for 15 minutes at room temperature before signal was read on an Envision Plate Reader.

c-Myc/Max/Ebox DNA = c-Myc/Max/Ebox DNA (Homo sapiens, UniProt P01106); assay: c-Myc/Max/Ebox DNA AlphaScreen assay; assay type: binding; set-up: An exemplary assay uses full-length human c-Myc and Max proteins; his6 (cleaved yes); made in house
Chain of c-Myc/Max/Ebox DNA (P01106 16-454): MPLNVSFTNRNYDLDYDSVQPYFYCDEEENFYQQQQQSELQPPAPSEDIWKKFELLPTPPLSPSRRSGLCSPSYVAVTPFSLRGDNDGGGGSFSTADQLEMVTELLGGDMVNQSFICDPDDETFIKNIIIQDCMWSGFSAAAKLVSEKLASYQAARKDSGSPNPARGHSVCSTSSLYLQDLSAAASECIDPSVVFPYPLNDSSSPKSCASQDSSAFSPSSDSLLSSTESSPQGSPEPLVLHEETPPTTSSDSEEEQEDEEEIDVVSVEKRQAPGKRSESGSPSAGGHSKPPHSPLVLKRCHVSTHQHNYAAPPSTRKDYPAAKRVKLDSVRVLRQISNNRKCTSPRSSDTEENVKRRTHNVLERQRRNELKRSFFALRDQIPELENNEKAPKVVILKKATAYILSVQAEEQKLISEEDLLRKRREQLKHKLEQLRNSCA
Procedure, shortened: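 Free c-Myc (25 nM), made by thrombin removal of the His6 tag, is pre-mixed with biotin-Ebox DNA (10 nM) and Ni acceptor beads before compound addition, then His6-Max (1.25 nM) and streptavidin donor beads are added. Buffer is HEPES pH 8.0 with BSA, Tween20, glycogen and DTT. Read after 2 h, excitation 680 nm, emission 520–620 nm.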

MM1S cells = assay: Cell viability assay (ATPlite), MM1S; assay type: cell-based, human; settings: Homo sapiens, MM1.S, 72 h, cell viability, three days, ATPlite; NA: inactive under assay conditions
Procedure: as §1, §2, §3

H2171 cells = assay: Cell viability assay (ATPlite), H2171; assay type: cell-based, human; settings: Homo sapiens, NCI-H2171, 72 h, cell viability, three days, ATPlite; NA: inactive under assay conditions
Procedure: as §1, §2, §3

[1] = class symbols, NA: not active under assay conditions, read-out: Myc/Max IC50

| SMILES | EC50 (Jurkat cells; Homo sapiens, Jurkat) [µM] | IC50 (c-Myc/Max/Ebox DNA; [1]) [µM] | further results |
| --- | --- | --- | --- |
| Cc1ccc(C)n1-c1ncccc1C(=O)O [Compound 134] | ≥ 100 | 1 to 10 | – |
| COc1cc(C(=O)OCOC(C)=O)c(-n2c(C)ccc2C)cc1OC [Compound 160] | – | – | IC50 (c-Myc/Max/Ebox DNA; c-Myc/Max/Ebox DNA AlphaScreen, NA: inactive under assay conditions, read-out: Biochemical IC50): 94.6 µM; EC50 (MM1S cells): 211 µM; EC50 (H2171 cells): 104 µM |
| Cc1ccc(C)n1-c1cc(C(=O)N2CCCC(c3ccc(C(=O)O)cc3)C2)ccc1C(=O)O (stereo not shown) [Compound 164] | ≥ 100 | 1 to 10 | – |
| Cc1ccc(C)n1-c1cc(-c2nnc(-c3cccc(C(=O)O)c3)o2)ccc1C(=O)O [Compound 167] | 10 to 100 | 10 to 100 | – |
| Cc1ccc(C)n1-c1cc(C(=O)N2CCCC(c3cccc(C(=O)O)c3)C2)ccc1C(=O)O (stereo not shown) [Compound 169] | ≥ 100 | 1 to 10 | – |
| Cc1ccccc1N1CCN(C(=O)c2ccc(C(=O)O)c(-n3c(C)ccc3C)c2)CC1 [Compound 179] | ≥ 100 | 10 to 100 | – |
| Cc1ccc(C)n1-c1ccccc1C(=O)NS(C)(=O)=O [Compound 180] | ≥ 100 | 10 to 100 | – |
| Cc1ccc(C)n1-c1cccnc1C(=O)O [Compound 181] | ≥ 100 | 1 to 10 | – |
| Cc1ccc(C)n1-c1cc(C(=O)N2CCN(c3cccc(O)c3)CC2)ccc1C(=O)O [Compound 182] | ≥ 100 | 1 to 10 | – |
| COC(=O)c1ccc(C(=O)NNC(=O)OC(C)(C)C)cc1-n1c(C)ccc1C [Compound 184] | ≥ 100 | ≥ 100 | – |
| COc1ccc(C2CCCN(C(=O)c3ccc(C(=O)O)c(-n4c(C)ccc4C)c3)C2)cc1 (stereo not shown) [Compound 185] | ≥ 100 | 10 to 100 | – |
| Cc1ccc(C)n1-c1cc(C(=O)N2CCCC(c3ccc(C(=O)NS(C)(=O)=O)cc3)C2)ccc1C(=O)NS(C)(=O)=O (stereo not shown) [Compound 186] | ≥ 100 | ≥ 100 | – |
| Cc1ccc(C)n1-c1ncccc1C(=O)NS(C)(=O)=O [Compound 187] | ≥ 100 | ≥ 100 | – |
| Cc1ccc(C)n1-c1cc(C(=O)N2CCCC(c3ccccc3)C2)ccc1C(=O)O (stereo not shown) [Compound 188] | ≥ 100 | 10 to 100 | – |
| COc1cccc(C2CCCN(C(=O)c3ccc(C(=O)O)c(-n4c(C)ccc4C)c3)C2)c1 (stereo not shown) [Compound 189] | 10 to 100 | 1 to 10 | – |
| Cc1ccc(C)n1-c1ccccc1C(=O)NS(=O)(=O)C1CC1 [Compound 190] | 10 to 100 | ≥ 100 | – |
| Cc1ccc(C)n1-c1ccccc1C(=O)NS(=O)(=O)c1ccccc1 [Compound 191] | 10 to 100 | ≥ 100 | – |
| Cc1ccc(C(F)(F)F)n1-c1ccccc1C(=O)O [Compound 192] | 10 to 100 | ≥ 100 | – |
| Cc1ccc(C)n1-c1cc(CNCc2ccc(C(=O)O)cc2)ccc1C(=O)O [Compound 193] | ≥ 100 | < 1 | – |
| Cc1ccc(C)n1-c1cc(C(=O)N2CCN(c3cccnc3)CC2)ccc1C(=O)O [Compound 194] | 10 to 100 | ≥ 100 | – |
| Cc1ccc(C)n1-c1cc(C(=O)N2CCN(c3cccc(C(=O)O)c3)CC2)ccc1C(=O)O [Compound 195] | ≥ 100 | < 1 | – |

| SMILES | EC50 (Jurkat cells; Homo sapiens, Jurkat) [µM] | IC50 (c-Myc/Max/Ebox DNA; [1]) [µM] | further results |
| --- | --- | --- | --- |
| Cc1ccc(C)n1-c1cc(CNCc2cccc(C(=O)O)c2)ccc1C(=O)O [Compound 196] | ≥ 100 | 1 to 10 | – |
| O=C(O)c1ccccc1-n1c(Br)ccc1C(F)(F)F [Compound 197] | ≥ 100 | 10 to 100 | – |
| Cc1ccc(C)n1-c1cc(C(=O)N2CCN(c3ccccc3C(=O)O)CC2)ccc1C(=O)O [Compound 198] | ≥ 100 | 1 to 10 | – |
| Cc1ccc(C)n1-c1cc(C(=O)N2CCN(c3ccc(C(=O)O)cc3)CC2)ccc1C(=O)O [Compound 199] | 10 to 100 | 1 to 10 | – |
| Cc1ccccc1C1CCCN(C(=O)c2ccc(C(=O)O)c(-n3c(C)ccc3C)c2)C1 (stereo not shown) [Compound 200] | 10 to 100 | ≥ 100 | – |
| Cc1ccc(C)n1-c1cc(C(=O)N2CCCC(c3ccc(Cl)cc3)C2)ccc1C(=O)O (stereo not shown) [Compound 201] | 10 to 100 | 10 to 100 | – |
| Cc1ccc(C)n1-c1cc(C(=O)N2CCC=C(c3ccc(C(=O)O)cc3)C2)ccc1C(=O)O [Compound 202] | 10 to 100 | 10 to 100 | – |
| Cc1ccc(C)n1-c1cc(C(=O)N2CCCC(c3ccccc3C(=O)O)C2)ccc1C(=O)O (stereo not shown) [Compound 203] | ≥ 100 | < 1 | – |
| Cc1ccc(C)n1-c1cc(C(=O)N2CCC=C(c3cccc(C(=O)O)c3)C2)ccc1C(=O)O [Compound 204] | 10 to 100 | 10 to 100 | – |
| Cc1ccc(C)n1-c1cc(C(=O)N2CCCC(c3ccc(C(=O)NS(C)(=O)=O)cc3)C2)ccc1C(=O)O (stereo not shown) [Compound 205] | ≥ 100 | 1 to 10 | – |
| Cc1ccc(C)n1-c1cc(-c2nnc(-c3ccc(C(=O)O)cc3)o2)ccc1C(=O)O [Compound 206] | 10 to 100 | 10 to 100 | – |
| Cc1ccc(C)n1-c1cc(C(=O)N2CCCC(c3ccccc3O)C2)ccc1C(=O)O (stereo not shown) [Compound 207] | ≥ 100 | 10 to 100 | – |
| Cc1ccc(C)n1-c1cc(C(=O)N2CCCC(c3ccc(CC(=O)O)cc3)C2)ccc1C(=O)O (stereo not shown) [Compound 208] | 10 to 100 | 1 to 10 | – |
| Cc1ccc(C)n1-c1cc(C(=O)N2CCCC(c3ccc(C(=O)O)cc3)C2)ccc1C(=O)O (stereo not shown) [Compound 209] | – | 10 to 100 | EC50 (Jurkat cells): ≥ 100 µM |
| Cc1ccc(C)n1-c1cc(C(=O)N2CCCC(c3ccc(C(=O)O)cc3)C2)ccc1C(=O)O (stereo not shown) [Compound 210] | – | 10 to 100 | EC50 (Jurkat cells): ≥ 100 µM |
| COC(=O)c1ccc(C(=O)NN)cc1-n1c(C)ccc1C [Compound 211] | ≥ 100 | ≥ 100 | – |
| Cc1cccc(C2CCCN(C(=O)c3ccc(C(=O)O)c(-n4c(C)ccc4C)c3)C2)c1 (stereo not shown) [Compound 212] | 10 to 100 | 10 to 100 | – |
| COc1ccccc1C(=O)N1CCN(C(=O)c2ccc(C(=O)O)c(-n3c(C)ccc3C)c2)CC1 [Compound 213] | ≥ 100 | ≥ 100 | – |
| Cc1ccc(C)n1-c1cc(Br)ccc1C(=O)NS(C)(=O)=O [Compound 214] | 10 to 100 | ≥ 100 | – |
| Cc1cnc(C(=O)N2CCN(C(=O)c3ccc(C(=O)O)c(-n4c(C)ccc4C)c3)CC2)cn1 [Compound 215] | ≥ 100 | 10 to 100 | – |
| Cc1ccc(C)n1-c1cc(C(=O)N2CCN(C(=O)c3cccnc3)CC2)ccc1C(=O)O [Compound 216] | ≥ 100 | 10 to 100 | – |
